We go through seven molecules from patent publication US4705784A, “Cephem compounds” (Sumitomo Pharmaceuticals Company, Limited, priority 1983, dated 1987).

In brackets after ≈: the same amount, converted by molar mass.

For series [1], the system named is Staphylococcus epidermidis. The experiment in a line: Antimicrobial activity test, Staphylococcus epidermidis. Type of series: cell-based.
A further series has as its system Proteus mirabilis. Kind of series: Antimicrobial activity test, Proteus mirabilis. Type of series: cell-based.
The test system of a further series is Escherichia coli. Kind of series: Antimicrobial activity test, Escherichia coli. Type of series: cell-based.
The next series has as its system Serratia marcescens. Kind of series: Antimicrobial activity test, Serratia marcescens. Type of series: cell-based.
Another series has as its system Enterobacter aerogenes. Kind of series: Antimicrobial activity test, Enterobacter aerogenes. The following applies: Klebsiella aerogenes. Type of series: cell-based.
The nature of series [2]: Oral dosage absorbability: urinary excretion rate after oral administration, rat. Type of series: in vivo. The following applies: urine, dose: 50 mg/kg. The protocol:
(§1) Results of oral dosage absorbability tests
(§2) Urinary excretion rate after oral
(§3) Test compd. administration (dose: 50 mg/kg)

Series [3] can be described thus: Oral dosage absorbability: urinary excretion rate after oral administration, mouse. Type of series: in vivo. The following applies: urine, dose: 50 mg/kg. On the procedure:
as §1, §2, §3

For series [4], the system named is β-lactamase producing resistant bacteria. The following applies: cephem antibiotics in use for oral administration; cited from earlier work.
The next series has as its system bacteria. Conditions: cephem antibiotics in use for oral administration; cited from earlier work.

Broadly, the MIC is the lowest concentration that inhibits growth of the organism. Lower therefore signals greater potency. As to `CO/N=C(\C(=O)NC1C(=O)N2C(C(=O)O)=C(COC(N)=O)CS[C@H]12)c1cscn1` (some centres unmarked) [Example 1, 7-[(Z)-2-Methoxyimino-2-(thiazol-4-yl)acetamido]-3-carbamoyloxymethyl-3-cephem-4-carboxylic acid], the minimal inhibitory concentration (MIC) in series [1] is 1.56 µg/mL (≈ 3.53 µM); with Proteus mirabilis, at most 0.013 µg/mL; in the series on Escherichia coli, 0.05 µg/mL (≈ 0.113 µM); in the series with Serratia marcescens, 1.56 µg/mL (≈ 3.53 µM); in the series on Enterobacter aerogenes, 0.39 µg/mL (≈ 0.883 µM).
Consider `CO/N=C(\C(=O)NC1C(=O)N2C(C(=O)OCOC(=O)C(C)(C)C)=C(COC(N)=O)CS[C@H]12)c1cscn1` (some centres unmarked) [Example 5, Pivaloyloxymethyl 7-[(Z)-2-methoxyimino-2-(thiazol-4-yl)acetamido]-3-carbamoyloxymethyl-3-cephem-4-carboxylate], for which the dose excreted in [2] worked out at 30%; in series [3], 64%.
As to `CCO/N=C(\C(=O)NC1C(=O)N2C(C(=O)O)=C(COC(N)=O)CSC12)c1cscn1` (centres unmarked) [Example 10], the MIC in [1] came to 3.13 µg/mL (≈ 6.87 µM); in the series with Proteus mirabilis, 0.05 µg/mL (≈ 0.11 µM); against Escherichia coli, 0.2 µg/mL (≈ 0.439 µM); against Serratia marcescens, 3.13 µg/mL (≈ 6.87 µM); with Enterobacter aerogenes, 0.78 µg/mL (≈ 1.71 µM).
Turning to `NC(=O)OCC1=C(C(=O)O)N2C(=O)C(NC(=O)/C(=N\O)c3cscn3)[C@H]2SC1` (some centres unmarked) [Example 16, 7-[(Z)-2-hydroxyimino-2-(thiazol-4-yl)acetamido]-3-carbamoyloxymethyl-3-cephem-4-carboxylic acid], the MIC in [1] is 1.56 µg/mL (≈ 3.65 µM); against Proteus mirabilis it was 0.78 µg/mL (≈ 1.82 µM); in the series with Escherichia coli it was 0.39 µg/mL (≈ 0.912 µM); against Serratia marcescens, 3.13 µg/mL (≈ 7.32 µM); in the series on Enterobacter aerogenes, 1.56 µg/mL (≈ 3.65 µM).
For `N[C@@H](C(=O)N[C@@H]1C(=O)N2C(C(=O)O)=C(Cl)CS[C@H]12)c1ccccc1` [cefaclor], the “effect on β-lactamase producing resistant bacteria” value (shortened to “effect”) in [4] is given as “ineffective”. Moreover, in the series with bacteria, the “antimicrobial activity and width of antimicrobial spectrum” value (“antimicrobial activity and width” below) is “slightly inferior”.
As to `N[C@@H](C(=O)N[C@@H]1C(=O)N2C(C(=O)O)=C(CSc3c[nH]nn3)CS[C@H]12)c1ccc(O)cc1` [cefatrizine], the “effect” value in [4] was “ineffective”. In addition, the “antimicrobial activity and width” value in the series on bacteria is “slightly inferior”.
For `CC1=C(C(=O)O)N2C(=O)[C@@H](NC(=O)[C@H](N)c3ccccc3)[C@H]2SC1` [cephalexin], in series [4], the “effect” value was “ineffective”. Moreover, the “antimicrobial activity and width” value with bacteria is “slightly inferior”.
